Laboratory results reported in PubChem BioAssay AID192 (DTP/NCI, 2004).
Where “and” joins values, the source holds several entries; their conditions need not be identical. Equal entries are not always repeated. Inconclusive results and toxic doses are left out. How the source made its calls: active means survival T/C of 150% or more; inactive means T/C below 125% in these data.

Test system: BDF1 mice, B16 melanoma ip, median survival T/C
Experiment: NCI In Vivo Anticancer Drug Screen. Data for tumor model B16 Melanoma (intraperitoneal) in B6D2F1 (BDF1) mice
Details: endpoint: median survival time, higher = longer survival
Outline: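 Mice with transplantable tumors; drug vs vehicle groups; endpoint survival or tumor size; value = T/C.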

[1] = dose: 100.0 mg/kg/injection, schedule: Q01DX009 (ip), vehicle: Klucel (hydroxypropylcellulose) (HPC)
[2] = dose: 200.0 mg/kg/injection, schedule: Q01DX009 (ip), vehicle: Klucel (hydroxypropylcellulose) (HPC)
[3] = dose: 400.0 mg/kg/injection, schedule: Q01DX009 (ip), vehicle: Klucel (hydroxypropylcellulose) (HPC)
[4] = dose: 100.0 mg/kg/injection, schedule: Q01DX009 (ip), vehicle: saline with Tween-80
[5] = dose: 200.0 mg/kg/injection, schedule: Q01DX009 (ip), vehicle: saline with Tween-80
[6] = dose: 400.0 mg/kg/injection, schedule: Q01DX009 (ip), vehicle: saline with Tween-80
[7] = dose: 25.0 mg/kg/injection, schedule: Q01DX009 (ip), vehicle: Klucel (hydroxypropylcellulose) (HPC)
[8] = dose: 50.0 mg/kg/injection, schedule: Q01DX009 (ip), vehicle: Klucel (hydroxypropylcellulose) (HPC)
[9] = dose: 50.0 mg/kg/injection, schedule: Q01DX009 (ip), vehicle: saline with Tween-80
[10] = dose: 12.5 mg/kg/injection, schedule: Q01DX009 (ip), vehicle: saline with Tween-80
[11] = dose: 25.0 mg/kg/injection, schedule: Q01DX009 (ip), vehicle: saline with Tween-80
[12] = dose: 12.5 mg/kg/injection, schedule: Q01DX009 (ip), vehicle: saline
[13] = dose: 100.0 mg/kg/injection, schedule: Q01DX009 (ip), vehicle: saline
[14] = dose: 400.0 mg/kg/injection, schedule: Q01DX009 (ip), vehicle: saline

Measured: T/C

Cc1cccc(C)c1N1C(=O)CCC1=O
inactive: [1] 101 % of control | [2] 95 % of control | [3] 102 % of control

CC(=O)CC(=O)Nc1ncccc1C
inactive: dose: 25.0 mg/kg/injection, schedule: Q01DX009 (ip), vehicle: carboxymethylcellulose (CMC) 111 % of control | dose: 50.0 mg/kg/injection, schedule: Q01DX009 (ip), vehicle: carboxymethylcellulose (CMC) 106 % of control | dose: 100.0 mg/kg/injection, schedule: Q01DX009 (ip), vehicle: carboxymethylcellulose (CMC) 107 % of control

COc1cccc(NC(=O)Nc2ccccc2)c1
inactive: [1] 110 % of control | [2] 101 % of control | [3] 88 % of control

Cc1nc(NCc2ccccc2)c2cc[nH]c2n1
inactive: dose: 0.04 mg/kg/injection, schedule: Q01DX009 (ip), vehicle: saline 116 % of control | dose: 0.09 mg/kg/injection, schedule: Q01DX009 (ip), vehicle: saline 123 % of control | dose: 0.39 mg/kg/injection, schedule: Q01DX009 (ip), vehicle: saline 113 % of control

CCOc1ccc2cc(S(=O)(=O)O)ccc2c1N
inactive: [4] 95 % of control | [5] 87 % of control | [6] 95 % of control

CCCCCCOCCN1CCN(CCCN2c3ccccc3Sc3ccc(C(F)(F)F)cc32)CC1
inactive: dose: 0.5 mg/kg/injection, schedule: Q01DX009 (ip), vehicle: saline with Tween-80 112 % of control | dose: 1.0 mg/kg/injection, schedule: Q01DX009 (ip), vehicle: saline with Tween-80 109 % of control | dose: 2.0 mg/kg/injection, schedule: Q01DX009 (ip), vehicle: saline with Tween-80 109 % of control

CNc1nc(N)nc(Nc2ccc(I)cc2)c1N=O
inactive: [7] 99 % of control | [8] 90 % of control | [9] 94 % of control | [1] 96 % of control | [4] 94 % of control | [5] 94 % of control | [3] 123 % of control

O=C(N/N=C\c1cc(Br)cc(Br)c1O)N/N=C/c1cc(Br)cc(Br)c1O
inactive: dose: 6.25 mg/kg/injection, schedule: Q01DX009 (ip), vehicle: saline with Tween-80 108 % of control and 120 % of control | dose: 6.25 mg/kg/injection, schedule: Q01DX009 (ip), vehicle: sodium bicarbonate 96 % of control | [10] 104 % of control | dose: 12.5 mg/kg/injection, schedule: Q01DX009 (ip), vehicle: sodium bicarbonate 107 % of control | dose: 25.0 mg/kg/injection, schedule: Q01DX009 (ip), vehicle: sodium bicarbonate 107 % of control | dose: 50.0 mg/kg/injection, schedule: Q01DX009 (ip), vehicle: sodium bicarbonate 107 % of control | dose: 100.0 mg/kg/injection, schedule: Q01DX009 (ip), vehicle: sodium bicarbonate 118 % of control | dose: 200.0 mg/kg/injection, schedule: Q01DX009 (ip), vehicle: sodium bicarbonate 122 % of control

CCN(CC)CCNc1ccc(N=Nc2cnc3ccccc3c2)c2ccccc12
inactive: [11] 90 % of control | [9] 94 % of control

CC1=C(/C=C/C(C)=N/NC(N)=O)C(C)(C)CCC1
inactive: dose: 50.0 mg/kg/injection, schedule: Q04DX003 (ip), vehicle: saline 112 % of control | dose: 100.0 mg/kg/injection, schedule: Q04DX003 (ip), vehicle: saline 95 % of control | dose: 200.0 mg/kg/injection, schedule: Q04DX003 (ip), vehicle: saline 102 % of control

CCN1C[C@]2(COC)[C@H](O)C[C@H](OC)[C@]34C1[C@H]([C@H](OC)[C@H]23)[C@]1(OC(C)=O)[C@H]2[C@@H](OC(=O)c3ccccc3)[C@](O)(C[C@H]24)[C@@H](OC)[C@@H]1O
inactive: dose: 15.0 micrograms/kg/injection, schedule: Q01DX009 (ip), vehicle: Klucel (hydroxypropylcellulose) (HPC) 92 % of control | dose: 60.0 micrograms/kg/injection, schedule: Q01DX009 (ip), vehicle: Klucel (hydroxypropylcellulose) (HPC) 89 % of control | dose: 120.0 micrograms/kg/injection, schedule: Q01DX009 (ip), vehicle: Klucel (hydroxypropylcellulose) (HPC) 94 % of control

CC(=O)Oc1c(Br)cc(Br)cc1-c1ccccc1
inactive: [9] 98 % of control | [4] 94 % of control | [5] 98 % of control | [6] 91 % of control

O=[N+]([O-])c1ccc2c(c1)=N/C(=N\c1nc(O)c(O)[nH]1)N=2
inactive: [1] 86 % of control | [2] 100 % of control | [3] 103 % of control

CCc1cc(O)cc(C)c1Cl
inactive: [10] 95 % of control | [11] 110 % of control | [9] 99 % of control and 106 % of control

C=CCNc1ccc(OC)cc1
inactive: [9] 95 % of control | [4] 107 % of control

CCN(c1ccccc1C)S(=O)(=O)c1ccccc1
inactive: [11] 100 % of control | [9] 101 % of control | [1] 96 % of control | [4] 96 % of control

Oc1ccc(C2CCc3ccccc32)cc1 (stereo not drawn)
inactive: [1] 96 % of control | [2] 96 % of control | [3] 100 % of control

CN1CCN(CCC=C2c3ccccc3Sc3ccc(S(=O)(=O)N(C)C)cc32)CC1
inactive: dose: 0.78 mg/kg/injection, schedule: Q01DX009 (ip), vehicle: saline 102 % of control | dose: 1.56 mg/kg/injection, schedule: Q01DX009 (ip), vehicle: saline 100 % of control | dose: 3.12 mg/kg/injection, schedule: Q01DX009 (ip), vehicle: saline 86 % of control | [12] 89 % of control

Cc1cc2oc(=O)c3c(c2c(O)c1CN1CCOCC1)CCCC3
inactive: dose: 64.0 mg/kg/injection, schedule: Q01DX009 (ip), vehicle: Klucel (hydroxypropylcellulose) (HPC) 103 % of control | dose: 128.0 mg/kg/injection, schedule: Q01DX009 (ip), vehicle: Klucel (hydroxypropylcellulose) (HPC) 98 % of control | dose: 256.0 mg/kg/injection, schedule: Q01DX009 (ip), vehicle: Klucel (hydroxypropylcellulose) (HPC) 108 % of control

COc1cc(NC(=O)CC(C)=O)cc(OC)c1OC
inactive: [13] 112 % of control | dose: 132.0 mg/kg/injection, schedule: Q01DX009 (ip), vehicle: saline with Tween-80 100 % of control | [5] 95 % of control | dose: 300.0 mg/kg/injection, schedule: Q01DX009 (ip), vehicle: saline with Tween-80 95 % of control | [14] 90 % of control

N#CCCc1ccccc1
inactive: dose: 3.13 mg/kg/injection, schedule: Q01DX009 (ip), vehicle: saline 100 % of control | dose: 6.25 mg/kg/injection, schedule: Q01DX009 (ip), vehicle: saline 97 % of control | [12] 100 % of control

Cc1cc(C)c([I+]c2c(C)cc(C)cc2C)c(C)c1
inactive: dose: 1.5 mg/kg/injection, schedule: Q01DX009 (ip), vehicle: suspension in saline 103 % of control | dose: 3.0 mg/kg/injection, schedule: Q01DX009 (ip), vehicle: Klucel (hydroxypropylcellulose) (HPC) 91 % of control | dose: 3.0 mg/kg/injection, schedule: Q01DX009 (ip), vehicle: suspension in saline 95 % of control | dose: 6.0 mg/kg/injection, schedule: Q01DX009 (ip), vehicle: Klucel (hydroxypropylcellulose) (HPC) 91 % of control | dose: 6.0 mg/kg/injection, schedule: Q01DX009 (ip), vehicle: suspension in saline 100 % of control

O=[N+]([O-])c1ccc(Oc2cc(Cl)c(Cl)cc2Cl)c([N+](=O)[O-])c1
inactive: [7] 107 % of control | [8] 106 % of control | [1] 99 % of control

COC(=O)C(CCl)NC(C)=O (stereo not drawn)
inactive: [13] 102 % of control | dose: 200.0 mg/kg/injection, schedule: Q01DX009 (ip), vehicle: saline 102 % of control | [14] 117 % of control

CNCCN(C)CCNC
inactive: dose: 25.0 mg/kg/injection, schedule: Q01DX009 (ip), vehicle: saline 98 % of control | dose: 50.0 mg/kg/injection, schedule: Q01DX009 (ip), vehicle: saline 89 % of control | [13] 95 % of control

Cc1ccc(N)c(Br)c1
inactive: [11] 88 % of control | [9] 88 % of control | [4] 91 % of control

CCCCCCCCCCCCCCCCCCNC(=O)Nc1ccc(C(C)C)cc1
inactive: dose: 25.0 mg/kg/injection, schedule: Q04DX003 (ip), vehicle: Klucel (hydroxypropylcellulose) (HPC) 86 % of control | dose: 100.0 mg/kg/injection, schedule: Q04DX003 (ip), vehicle: Klucel (hydroxypropylcellulose) (HPC) 86 % of control and 89 % of control

CCC[CH2][Sn]1([CH2]CCC)[O]C2C(CO)OC(n3ccc(N)nc3=O)C2[O]1 (stereo not drawn)
inactive: dose: 0.78 mg/kg/injection, schedule: Q01DX009 (ip), vehicle: Klucel (hydroxypropylcellulose) (HPC) 99 % of control | dose: 1.56 mg/kg/injection, schedule: Q01DX009 (ip), vehicle: Klucel (hydroxypropylcellulose) (HPC) 123 % of control | dose: 3.12 mg/kg/injection, schedule: Q01DX009 (ip), vehicle: Klucel (hydroxypropylcellulose) (HPC) 116 % of control | dose: 6.25 mg/kg/injection, schedule: Q01DX009 (ip), vehicle: Klucel (hydroxypropylcellulose) (HPC) 104 % of control and 124 % of control
